We go through 12 compounds from patent US20230391772A1, “METHODS AND COMPOSITIONS FOR TARGETED PROTEIN DEGRADATION” (Ranok Therapeutics (Hangzhou) Co. Ltd., priority 2020, published 2023).

A value given as a limit tells only on which side of the number the result lay.

Assay [1] has as its target T1, HSP90a protein (Homo sapiens, UniProt P07900).
T1 construct: purchased BPS Bioscience 50298
As to the kind of experiment: HSP90α-binding fluorescent polarization (FP) assay, FITC-geldanamycin probe. The settings on record: FP competition with FITC-geldanamycin, 5 nM, 120 min at 25° C. The procedure:
HSP90α-Binding Fluorescent Polarization (FP) Assay
Binding of test compounds to HSP90a protein was measured by fluorescent polarization (FP) using the HSP90a (N-terminal) Assay Kit (BPS Bioscience, #50298), following the manufacturer's instructions, except as noted. Fluorescently labeled HSP90-binding compounds, either the provided FITC-geldanamycin (5 nM final concentration) or RNK04010, a triazolone-based HSP90 binding small molecule labeled with BODIPY through a piperizine-phenyl linker (5 nM final concentration) were employed. A 2.5-fold serial dilution of each test compound ranging from 20 μM to 5.2 nM was assayed for binding to HSP90a. After the final step of adding HSP90a protein to each assay well, plates were mixed by brief shaking, incubated at 25° C. for 120 min for FITC-geldanamycin or 300 min for RNK04010, and fluorescence was measured using a PerkinElmer EnVision Plate Reader.

For assay [2], the system named is NCI-H358 human non-small cell lung cancer. As to the kind of experiment: NCI-H358 CCK-8 proliferation assay. The format is cell-based. The settings on record: NCI-H358 cells, 72 hr. The method in brief: (§1)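 Proliferation of mutant-KRAS(G12C) cells (2 copies in MIA PaCa-2, single copy in NCI-H358/NCI-H23) measured with CCK-8 after treatment across 20 μM–1.02 nM; inhibition expressed relative to vehicle-treated wells after subtracting no-cell background.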
(Formazan colour is commonly taken as a measure of viable cells.)

For assay [3], the system named is MIA PaCa-2 human pancreatic carcinoma. As to the kind of experiment: MIA PaCa-2 CCK-8 proliferation assay. It counts as cell-based. The settings on record: Homo sapiens, MIA PaCa-2, 72 h, MIA PaCa-2 cells. The method in brief:
as §1

The target of assay [4] is KRAS(G12C) (Homo sapiens, UniProt P01116, G12C). As to the kind of experiment: KRAS(G12C) Western blot protein degradation assay in MIA PaCa-2 cells. The format is cell-based. More on the design: host or cells: LU65A. The settings on record: 48 hr. For orientation: A western blot detects proteins with antibodies after separation by electrophoresis.
KRAS(G12C), sequence (P01116 1-188 isoform P01116-2 G12C): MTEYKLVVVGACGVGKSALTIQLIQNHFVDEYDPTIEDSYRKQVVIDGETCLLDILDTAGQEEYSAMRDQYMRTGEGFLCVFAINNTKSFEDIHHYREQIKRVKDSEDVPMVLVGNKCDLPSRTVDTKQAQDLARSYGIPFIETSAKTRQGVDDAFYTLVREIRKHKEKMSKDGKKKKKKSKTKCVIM

On to `CCC(=O)N1CCN(c2nc(OC[C@@H]3CCCN3C(=O)C3CCN(Cc4ccc(-n5c(O)nnc5-c5cc(C(C)C)c(O)cc5O)cc4)CC3)nc3c2CCN(c2cccc4cccc(Cl)c24)C3)C[C@@H]1CC#N` [Compound 140, 2-((S)-4-(7-(8-chloronaphthalen-1-yl)-2-(((S)-1-(1-(4-(3-(2,4-dihydroxy-5-isopropylphenyl)-5-hydroxy-4H-1,2,4-triazol-4-yl)benzyl)piperidine-4-carbonyl)pyrrolidin-2-yl)methoxy)-5,6,7,8-tetrahydropyrido[3,4-d]pyrimidin-4-yl)-1-propionylpiperazin-2-yl)acetonitrile], for which the 50% inhibitory concentration (IC50) (as a rule, the concentration that gives 50% inhibition) in assay [1] was 100 to 1000 nM. For the same compound, in assay [2], the EC50 (in general, the concentration needed to bring the measured effect to its halfway point) was in the range of 100 to 1000 nM.

For the compound `CCC(=O)N1CCN(c2nc(OC[C@@H]3CCN(C(=O)C4CCN(Cc5ccc(-n6c(O)nnc6-c6cc(C(C)C)c(O)cc6O)cc5)CC4)C3)nc3c2CCN(c2cccc4cccc(Cl)c24)C3)C[C@@H]1CC#N` [Compound 141, 2-((S)-4-(7-(8-chloronaphthalen-1-yl)-2-(((R)-1-(1-(4-(3-(2,4-dihydroxy-5-isopropylphenyl)-5-hydroxy-4H-1,2,4-triazol-4-yl)benzyl)piperidine-4-carbonyl)pyrrolidin-3-yl)methoxy)-5,6,7,8-tetrahydropyrido[3,4-d]pyrimidin-4-yl)-1-propionylpiperazin-2-yl)acetonitrile], the concentration for half-maximal inhibition (IC50) in assay [1] fell in the range of 100 to 1000 nM. The compound further gave a concentration giving a half-maximal response (EC50) in assay [2] of 100 to 1000 nM.

Take `C=C(F)C(=O)N1CCN(c2nc(N3CCC(Cc4ccc(-n5c(C(=O)NCC(F)(F)F)nnc5-c5cc(C(C)C)c(O)cc5O)cc4)CC3)nc3c2CCN(c2cccc4cccc(Cl)c24)C3)C[C@@H]1CC#N` [Compound 142, (S)-4-(4-((1-(7-(8-chloronaphthalen-1-yl)-4-(3-(cyanomethyl)-4-(2-fluoroacryloyl)piperazin-1-yl)-5,6,7,8-tetrahydropyrido[3,4-d]pyrimidin-2-yl)piperidin-4-yl)methyl)phenyl)-5-(2,4-dihydroxy-5-isopropylphenyl)-N-(2,2,2-trifluoroethyl)-4H-1,2,4-triazole-3-carboxamide]: the 50% inhibitory concentration (IC50) in assay [1] is above 1000 nM. In addition, the EC50 in assay [2] is above 1000 nM.

The compound `C=C(F)C(=O)N1CCN(c2nc(N3CCN(Cc4ccc(-n5c(O)nnc5-c5cc(CC)c(O)cc5O)cc4)CC3)nc3c2CCN(c2cccc4cccc(Cl)c24)C3)C[C@@H]1CC#N` [Compound 143, (S)-2-(4-(7-(8-chloronaphthalen-1-yl)-2-(4-(4-(3-(5-ethyl-2,4-dihydroxyphenyl)-5-hydroxy-4H-1,2,4-triazol-4-yl)benzyl)piperazin-1-yl)-5,6,7,8-tetrahydropyrido[3,4-d]pyrimidin-4-yl)-1-(2-fluoroacryloyl)piperazin-2-yl)acetonitrile] returned a half-inhibitory concentration (IC50) in assay [1] above 1000 nM. This compound gave an EC50 in assay [2] above 1000 nM.

In assay [1], `C=C(F)C(=O)N1CCN(c2nc(OC[C@@H]3CCCN3C(=O)C3CCN(Cc4ccc(-n5c(O)nnc5-c5cc(C(C)C)c(O)cc5O)cc4)CC3)nc3c2CCN(c2cccc4cccc(Cl)c24)C3)C[C@@H]1CC#N` [Compound 144, 2-((S)-4-(7-(8-chloronaphthalen-1-yl)-2-(((S)-1-(1-(4-(3-(2,4-dihydroxy-5-isopropylphenyl)-5-hydroxy-4H-1,2,4-triazol-4-yl)benzyl)piperidine-4-carbonyl)pyrrolidin-2-yl)methoxy)-5,6,7,8-tetrahydropyrido[3,4-d]pyrimidin-4-yl)-1-(2-fluoroacryloyl)piperazin-2-yl)acetonitrile] registered a half-maximal inhibitory concentration (IC50) of 100 to 1000 nM. Besides, the half-maximal effective concentration (EC50) in assay [2] was above 1000 nM.

As to `C=C(F)C(=O)N1CCN(c2nc(OC[C@@H]3CCN(C(=O)C4CCN(Cc5ccc(-n6c(O)nnc6-c6cc(C(C)C)c(O)cc6O)cc5)CC4)C3)nc3c2CCN(c2cccc4cccc(Cl)c24)C3)C[C@@H]1CC#N` [Compound 145, 2-((S)-4-(7-(8-chloronaphthalen-1-yl)-2-(((R)-1-(1-(4-(3-(2,4-dihydroxy-5-isopropylphenyl)-5-hydroxy-4H-1,2,4-triazol-4-yl)benzyl)piperidine-4-carbonyl)pyrrolidin-3-yl)methoxy)-5,6,7,8-tetrahydropyrido[3,4-d]pyrimidin-4-yl)-1-(2-fluoroacryloyl)piperazin-2-yl)acetonitrile, acetic acid], the half-maximal inhibitory concentration (IC50) in assay [1] lay in the range of 100 to 1000 nM. Besides, the EC50 in assay [2] and in assay [3] was 100 to 1000 nM throughout.

For `CCC(=O)N1CCN(c2nc(OCC3CN(C(=O)C4CCN(Cc5ccc(-n6c(O)nnc6-c6cc(C(C)C)c(O)cc6O)cc5)CC4)C3)nc3c2CCN(c2cccc4cccc(Cl)c24)C3)C[C@@H]1CC#N` [Compound 146, (S)-2-(4-(7-(8-chloronaphthalen-1-yl)-2-((1-(1-(4-(3-(2,4-dihydroxy-5-isopropylphenyl)-5-hydroxy-4H-1,2,4-triazol-4-yl)benzyl)piperidine-4-carbonyl)azetidin-3-yl)methoxy)-5,6,7,8-tetrahydropyrido[3,4-d]pyrimidin-4-yl)-1-propionylpiperazin-2-yl)acetonitrile], in assay [1], the 50% inhibitory concentration (IC50) fell in the range of 100 to 1000 nM. This compound also showed a concentration for a half-maximal effect (EC50) in assay [2] of 100 to 1000 nM.

`CCC(=O)N1CCN(c2nc(OCC3CCN(C(=O)C4CCN(Cc5ccc(-n6c(O)nnc6-c6cc(C(C)C)c(O)cc6O)cc5)CC4)CC3)nc3c2CCN(c2cccc4cccc(Cl)c24)C3)C[C@@H]1CC#N` [Compound 147, (S)-2-(4-(7-(8-chloronaphthalen-1-yl)-2-((1-(1-(4-(3-(2,4-dihydroxy-5-isopropylphenyl)-5-hydroxy-4H-1,2,4-triazol-4-yl)benzyl)piperidine-4-carbonyl)piperidin-4-yl)methoxy)-5,6,7,8-tetrahydropyrido[3,4-d]pyrimidin-4-yl)-1-propionylpiperazin-2-yl)acetonitrile] yielded an IC50 in assay [1] below 100 nM. Moreover, the EC50 in assay [2] and in assay [3] was 100 to 1000 nM each time.

As to `CCC(=O)N1CCN(c2nc(NCCC(=O)NCCc3ccc(CN4CCC(Cc5ccc(-n6c(C(=O)NCC(F)(F)F)nnc6-c6cc(C(C)C)c(O)cc6O)cc5)CC4)cc3)nc3c2CCN(c2cc(O)cc4ccccc24)C3)CC1` [Compound 149], the half-maximal inhibitory concentration (IC50) in assay [1] was 100 to 1000 nM. In addition, the EC50 in assay [2] was in the range of 100 to 1000 nM.

In assay [1], `CCC(=O)N1CCN(c2nc(OCCC(=O)NCCc3ccc(CN4CCC(Cc5ccc(-n6c(C(=O)NCC(F)(F)F)nnc6-c6cc(C(C)C)c(O)cc6O)cc5)CC4)cc3)nc3c2CCN(c2cc(O)cc4ccccc24)C3)CC1` [Compound 151, 5-(2,4-dihydroxy-5-isopropylphenyl)-4-(4-((1-(4-(2-(3-((7-(3-hydroxynaphthalen-1-yl)-4-(4-propionylpiperazin-1-yl)-5,6,7,8-tetrahydropyrido[3,4-d]pyrimidin-2-yl)oxy)propanamido)ethyl)benzyl)piperidin-4-yl)methyl)phenyl)-N-(2,2,2-trifluoroethyl)-4H-1,2,4-triazole-3-carboxamide] yielded a half-maximal inhibitory concentration (IC50) of 100 to 1000 nM. Besides, the EC50 in assay [2] fell in the range of 100 to 1000 nM.

`CCC(=O)N1CCN(c2nc(OC[C@@H]3CCN3C(=O)C3CCN(Cc4ccc(-n5c(O)nnc5-c5cc(C(C)C)c(O)cc5O)cc4)CC3)nc3c2CCN(c2cccc4cccc(Cl)c24)C3)C[C@@H]1CC#N` [Compound 152, 2-((S)-4-(7-(8-chloronaphthalen-1-yl)-2-(((S)-1-(1-(4-(3-(2,4-dihydroxy-5-isopropylphenyl)-5-hydroxy-4H-1,2,4-triazol-4-yl)benzyl)piperidine-4-carbonyl)azetidin-2-yl)methoxy)-5,6,7,8-tetrahydropyrido[3,4-d]pyrimidin-4-yl)-1-propionylpiperazin-2-yl)acetonitrile, trifluoroacetic acid] came in with a concentration for half-maximal inhibition (IC50) in assay [1] below 100 nM. The compound further showed a concentration giving a half-maximal response (EC50) in assay [2] above 1000 nM.

In turn, `C=C(F)C(=O)N1CCN(c2nc(OC[C@@H]3CCN(C(=O)C4CCN(Cc5ccc(-n6c(C(=O)NCC(F)(F)F)nnc6-c6cc(C(C)C)c(O)cc6O)cc5)CC4)C3)nc3c2CCN(c2cccc4cccc(Cl)c24)C3)C[C@@H]1CC#N` [Compound 168, 4-(4-((4-((R)-3-(((7-(8-chloronaphthalen-1-yl)-4-((S)-3-(cyanomethyl)-4-(2-fluoroacryloyl)piperazin-1-yl)-5,6,7,8-tetrahydropyrido[3,4-d]pyrimidin-2-yl)oxy)methyl)pyrrolidine-1-carbonyl)piperidin-1-yl)methyl)phenyl)-5-(2,4-dihydroxy-5-isopropylphenyl)-N-(2,2,2-trifluoroethyl)-4H-1,2,4-triazole-3-carboxamide] displayed an IC50 in assay [1] of 100 to 1000 nM. The compound also displayed a concentration for a half-maximal effect (EC50) in assay [3] below 100 nM. In addition, the inhibition (as a rule, the share of the control response that was lost under treatment) at 0.1562 µM in assay [4] (156.2 nM) is below 33%. Moreover, the inhibition at 0.3125 µM in assay [4] (312.5 nM) was below 33%. The compound also displayed an inhibition at 0.625 µM in assay [4] (625 nM) below 33%. The same compound yielded an inhibition at 1.25 µM in assay [4] (1250 nM) of 33 to 66%. The same compound had an inhibition at 2.5 µM in assay [4] (2500 nM) of 33 to 66%. This compound showed an inhibition at 5 µM in assay [4] (5000 nM) of 33 to 66%. Besides, the inhibition at 10 µM in assay [4] (10,000 nM) was 33 to 66%.
